Non-standard residues stand in square brackets, D forms with d. Residues, ends and D or L forms follow the SMILES beside them. Ala(1H-tetrazol-5-yl) = N[C@@H](Cc1nnn[nH]1)C(=O)O
Assay: Stability test 1, sample preparation 5: survival rate of peptide in Tris buffer (pH 7.0) after storage, HPLC
Assay type: physicochemical
Details: 100 μM peptide; for survival rate after correction for water, 40° C. 4 week / survival rate after correction for water, 40° C. 8 week: Tris buffer pH 7.0, 40° C.; for survival rate after correction for water, 40° C. 4 week: 4 weeks (Table 13); for survival rate after correction for water, 40° C. 8 week: 8 weeks (Table 13); for survival rate after correction for water, 60° C. 1 week / survival rate after correction for water, 60° C. 2 week: Tris buffer pH 7.0, 60° C.; for survival rate after correction for water, 60° C. 1 week: 1 week (Table 13); for survival rate after correction for water, 60° C. 2 week: 2 weeks (Table 13)
Protocol: The peak area value for the peptide in the chromatogram was calculated, and the survival rate (survival rate before correction for water) was calculated using formula (2). The survival rate after correction for water was also calculated from the survival rate before correction for water using formula (3) to take into account the permeability of the container.
The prepared peptide solutions were incubated for 4 weeks or 8 weeks in a 40° C. thermostatic bath, and for one week or 2 weeks in a thermostatic bath at 60° C., to obtain stored samples.
The following gradient time was used only for peptide 30.

| SMILES | survival rate after correction for water, 40° C. 4 week [%] | survival rate after correction for water, 40° C. 8 week [%] | survival rate after correction for water, 60° C. 1 week [%] | survival rate after correction for water, 60° C. 2 week [%] |
| --- | --- | --- | --- | --- |
| CC(=O)N[C@@H](Cc1c[nH]cn1)C(=O)N[C@@H](CO)C(=O)N[C@@H](Cc1nnn[nH]1)C(=O)NCC(=O)N[C@@H](C)C(=O)N[C@@H](Cc1ccccc1)C(=O)N[C@H](C(=O)N[C@@H](Cc1nnn[nH]1)C(=O)N[C@@H](CO)C(=O)N[C@@H](Cc1ccc(O)cc1)C(=O)N[C@@H](CO)C(=O)N[C@@H](CCCNC(=N)N)C(=O)N[C@@H](Cc1ccc(O)cc1)C(=O)N[C@@H](CCCNC(=N)N)C(=O)N[C@@H](CCCCN)C(=O)N[C@@H](CCC(N)=O)C(=O)N[C@@H](CC(C)C)C(=O)N[C@@H](C)C(=O)N[C@H](C(=O)N[C@@H](CCCCN)C(=O)N[C@@H](CCCCN)C(=O)N[C@@H](Cc1ccc(O)cc1)C(=O)N[C@@H](CC(C)C)C(=O)N[C@@H](C)C(=O)N[C@@H](C)C(=O)N[C@H](C(=O)N[C@@H](CC(C)C)C(N)=O)C(C)C)C(C)C)[C@@H](C)O [Peptide 23, HSTzGA FTTzSY SRYRK QLAVK KYLAA VL] (Ac-HS[Ala(1H-tetrazol-5-yl)]GAFT[Ala(1H-tetrazol-5-yl)]SYSRYRKQLAVKKYLAAVL-NH2) | 87.7 | 89.1 | 96.4 | 91.3 |
| CC[C@H](C)[C@H](NC(=O)CNC(=O)[C@H](Cc1nnn[nH]1)NC(=O)[C@H](CO)NC(=O)[C@H](Cc1c[nH]cn1)NC(C)=O)C(=O)N[C@@H](Cc1ccccc1)C(=O)N[C@@H](C)C(=O)N[C@@H](Cc1nnn[nH]1)C(=O)N[C@@H](CO)C(=O)N[C@@H](Cc1ccc(O)cc1)C(=O)N[C@@H](CO)C(=O)N[C@@H](CCCNC(=N)N)C(=O)N[C@@H](Cc1ccc(O)cc1)C(=O)N[C@@H](CCCNC(=N)N)C(=O)N[C@@H](CCCCN)C(=O)N[C@@H](CCC(N)=O)C(=O)N[C@@H](CC(C)C)C(=O)N[C@@H](C)C(=O)N[C@H](C(=O)N[C@@H](CCCCN)C(=O)N[C@@H](CCCCN)C(=O)N[C@@H](Cc1ccc(O)cc1)C(=O)N[C@@H](CC(C)C)C(=O)N[C@@H](C)C(=O)N[C@@H](C)C(=O)N[C@H](C(=O)N[C@@H](CC(C)C)C(N)=O)C(C)C)C(C)C [Peptide 24, HSTzGI FATzSY SRYRK QLAVK KYLAA VL] (Ac-HS[Ala(1H-tetrazol-5-yl)]GIFA[Ala(1H-tetrazol-5-yl)]SYSRYRKQLAVKKYLAAVL-NH2) | 90.5 | 83.5 | 99.5 | 91.1 |
| CC[C@H](C)[C@H](NC(=O)CNC(=O)[C@H](Cc1nnn[nH]1)NC(=O)[C@H](C)NC(=O)[C@H](Cc1c[nH]cn1)NC(C)=O)C(=O)N[C@@H](Cc1ccccc1)C(=O)N[C@@H](C)C(=O)N[C@@H](Cc1nnn[nH]1)C(=O)N[C@@H](CO)C(=O)N[C@@H](Cc1ccc(O)cc1)C(=O)N[C@@H](CO)C(=O)N[C@@H](CCCNC(=N)N)C(=O)N[C@@H](Cc1ccc(O)cc1)C(=O)N[C@@H](CCCNC(=N)N)C(=O)N[C@@H](CCCCN)C(=O)N[C@@H](CCC(N)=O)C(=O)N[C@@H](CC(C)C)C(=O)N[C@@H](C)C(=O)N[C@H](C(=O)N[C@@H](CCCCN)C(=O)N[C@@H](CCCCN)C(=O)N[C@@H](Cc1ccc(O)cc1)C(=O)N[C@@H](CC(C)C)C(=O)N[C@@H](C)C(=O)N[C@@H](C)C(=O)N[C@H](C(=O)N[C@@H](CC(C)C)C(N)=O)C(C)C)C(C)C [Peptide 25, HATzGI FATzSY SRYRK QLAVK KYLAA VL] (Ac-HA[Ala(1H-tetrazol-5-yl)]GIFA[Ala(1H-tetrazol-5-yl)]SYSRYRKQLAVKKYLAAVL-NH2) | 91.3 | 85.1 | 97.3 | 93.1 |
| CC[C@H](C)[C@H](NC(=O)CNC(=O)[C@H](Cc1nnn[nH]1)NC(=O)[C@H](C)NC(=O)[C@H](Cc1c[nH]cn1)NC(C)=O)C(=O)N[C@@H](Cc1ccccc1)C(=O)N[C@H](C(=O)N[C@@H](Cc1nnn[nH]1)C(=O)N[C@@H](CO)C(=O)N[C@@H](Cc1ccc(O)cc1)C(=O)N[C@@H](CO)C(=O)N[C@@H](CCCNC(=N)N)C(=O)N[C@@H](Cc1ccc(O)cc1)C(=O)N[C@@H](CCCNC(=N)N)C(=O)N[C@@H](CCCCN)C(=O)N[C@@H](C)C(=O)N[C@@H](CC(C)C)C(=O)N[C@@H](C)C(=O)N[C@H](C(=O)N[C@@H](CCCCN)C(=O)N[C@@H](CCCCN)C(=O)N[C@@H](Cc1ccc(O)cc1)C(=O)N[C@@H](CC(C)C)C(=O)N[C@@H](C)C(=O)N[C@@H](C)C(=O)N[C@H](C(=O)N[C@@H](CC(C)C)C(N)=O)C(C)C)C(C)C)[C@@H](C)O [Peptide 26, HATzGI FITzSY SRYRK ALAVK KYLAA VL] (Ac-HA[Ala(1H-tetrazol-5-yl)]GIFT[Ala(1H-tetrazol-5-yl)]SYSRYRKALAVKKYLAAVL-NH2) | 93.2 | 89.7 | 97.9 | 94.4 |
| CC[C@H](C)[C@H](NC(=O)CNC(=O)[C@H](Cc1nnn[nH]1)NC(=O)[C@H](CO)NC(=O)[C@H](Cc1c[nH]cn1)NC(C)=O)C(=O)N[C@@H](Cc1ccccc1)C(=O)N[C@@H](C)C(=O)N[C@@H](Cc1nnn[nH]1)C(=O)N[C@@H](CO)C(=O)N[C@@H](Cc1ccc(O)cc1)C(=O)N[C@@H](CO)C(=O)N[C@@H](CCCNC(=N)N)C(=O)N[C@@H](Cc1ccc(O)cc1)C(=O)N[C@@H](CCCNC(=N)N)C(=O)N[C@@H](CCCCN)C(=O)N[C@@H](C)C(=O)N[C@@H](CC(C)C)C(=O)N[C@@H](C)C(=O)N[C@H](C(=O)N[C@@H](CCCCN)C(=O)N[C@@H](CCCCN)C(=O)N[C@@H](Cc1ccc(O)cc1)C(=O)N[C@@H](CC(C)C)C(=O)N[C@@H](C)C(=O)N[C@@H](C)C(=O)N[C@H](C(=O)N[C@@H](CC(C)C)C(N)=O)C(C)C)C(C)C [Peptide 28, HSTzGI FATzSY SRYRK ALAVK KYLAA VL] (Ac-HS[Ala(1H-tetrazol-5-yl)]GIFA[Ala(1H-tetrazol-5-yl)]SYSRYRKALAVKKYLAAVL-NH2) | 94.1 | 89.8 | 98.6 | 90.9 |
| CC[C@H](C)[C@H](NC(=O)CNC(=O)[C@H](Cc1nnn[nH]1)NC(=O)[C@H](CO)NC(=O)[C@H](Cc1c[nH]cn1)NC(C)=O)C(=O)N[C@@H](Cc1ccccc1)C(=O)N[C@@H](C)C(=O)N[C@@H](Cc1nnn[nH]1)C(=O)N[C@@H](CO)C(=O)N[C@@H](Cc1ccc(O)cc1)C(=O)N[C@@H](CO)C(=O)N[C@@H](CCCNC(=N)N)C(=O)N[C@@H](Cc1ccc(O)cc1)C(=O)N[C@@H](CCCNC(=N)N)C(=O)N[C@@H](CCCCN)C(=O)N[C@@H](CCC(N)=O)C(=O)N[C@@H](C)C(=O)N[C@@H](C)C(=O)N[C@H](C(=O)N[C@@H](CCCCN)C(=O)N[C@@H](CCCCN)C(=O)N[C@@H](Cc1ccc(O)cc1)C(=O)N[C@@H](CC(C)C)C(=O)N[C@@H](C)C(=O)N[C@@H](C)C(=O)N[C@H](C(=O)N[C@@H](CC(C)C)C(N)=O)C(C)C)C(C)C [Peptide 29, HSTzGI FATzSY SRYRK QAAVK KYLAA VL] (Ac-HS[Ala(1H-tetrazol-5-yl)]GIFA[Ala(1H-tetrazol-5-yl)]SYSRYRKQAAVKKYLAAVL-NH2) | 86.1 | 77.4 | 96.3 | 91.9 |
| CC[C@H](C)[C@H](NC(=O)CNC(=O)[C@H](Cc1nnn[nH]1)NC(=O)[C@H](C)NC(=O)[C@H](Cc1c[nH]cn1)NC(C)=O)C(=O)N[C@@H](Cc1ccccc1)C(=O)N[C@@H](C)C(=O)N[C@@H](Cc1nnn[nH]1)C(=O)N[C@@H](C)C(=O)N[C@@H](Cc1ccc(O)cc1)C(=O)N[C@@H](CO)C(=O)N[C@@H](CCCNC(=N)N)C(=O)N[C@@H](Cc1ccc(O)cc1)C(=O)N[C@@H](CCCNC(=N)N)C(=O)N[C@@H](CCCCN)C(=O)N[C@@H](C)C(=O)N[C@@H](C)C(=O)N[C@@H](C)C(=O)N[C@H](C(=O)N[C@@H](CCCCN)C(=O)N[C@@H](CCCCN)C(=O)N[C@@H](Cc1ccc(O)cc1)C(=O)N[C@@H](CC(C)C)C(=O)N[C@@H](C)C(=O)N[C@@H](C)C(=O)N[C@H](C(=O)N[C@@H](CC(C)C)C(N)=O)C(C)C)C(C)C [Peptide 30, HATzGI FATzAY SRYRK AAAVK KYLAA VL] (Ac-HA[Ala(1H-tetrazol-5-yl)]GIFA[Ala(1H-tetrazol-5-yl)]AYSRYRKAAAVKKYLAAVL-NH2) | 91.5 | 83.4 | 96.7 | 93.7 |

Reference: patent US20250263459A1, “STABILIZED PACAP PEPTIDE” (SENJU PHARMACEUTICAL CO., LTD., priority 2019, published 2025)
